Measured values taken from ChEMBL document CHEMBL3885861, “Open TG-GATES”.

Species on record: Rattus norvegicus
Assay: Open TG-GATES - Regimen: Single
Type: toxicity, organism-based, Sprague-Dawley
Design: regimen Single, gender Male, age 6 weeks
Conditions: in vivo, ip, route intraperitoneal injection; for APTT / Bas / Eos / Fbg / Hb / Ht / Lym / MCH / MCHC / MCV / Mono / Neu / PT / Plat / RBC / Ret / WBC: tissue Blood; for KIDNEY_L / KIDNEY_R / KIDNEY_TOTAL: tissue Kidney; for LIVER: tissue Liver; for A/G / ALP / ALT / AST / BUN / CRE / Ca / Cl / DBIL / GLC / IP / K / LDH / Na / PL / RALB / TBIL / TC / TG / TP / gamma-GTP: tissue Plasma
[1] = 0 mg/kg, 3 h, dose 0 ug/Kg, dose level Control
[2] = 0 mg/kg, 6 h, dose 0 ug/Kg, dose level Control
[3] = 0 mg/kg, 9 h, dose 0 ug/Kg, dose level Control
[4] = 0 mg/kg, 24 h, dose 0 ug/Kg, dose level Control
[5] = 0.001 mg/kg, 3 h, dose 1 ug/Kg, dose level Low
[6] = 0.001 mg/kg, 6 h, dose 1 ug/Kg, dose level Low
[7] = 0.001 mg/kg, 9 h, dose 1 ug/Kg, dose level Low
[8] = 0.001 mg/kg, 24 h, dose 1 ug/Kg, dose level Low

## H-KGDRLS-OH [TNF-ALPHA]
[1]
  TERMINAL_BW: 200.6 g
  APTT: 20 s
  Bas: 0.4%
  Eos: 0.8%
  Fbg: 268.8 mg/dL
  Hb: 13 g/dL
  Ht: 40.3%
  Lym: 73.8%
  MCH: 21.6 pg
  MCHC: 32.3%
  MCV: 66.8 fL
  Mono: 3.8%
  Neu: 19.8%
  PT: 15.4 s
  Plat: 101.9 x10_4/uL
  RBC: 603.2 x10_4/ul
  Ret: 9.3%
  WBC: 95.8 x10_2/uL
  KIDNEY_L: 0.9 g
  KIDNEY_R: 0.9 g
  KIDNEY_TOTAL: 1.7 g
  LIVER: 9.3 g
  A/G: 0.9
  ALP: 1391 IU/L
  ALT: 43 IU/L
  AST: 74.8 IU/L
  BUN: 10.8 mg/dL
  CRE: 0.2 mg/dL
  Ca: 10.8 mg/dL
  Cl: 105.2 meq/L
  DBIL: 0.012 mg/dL
  GLC: 173.4 mg/dL
  IP: 9.6 mg/dL
  K: 4.1 meq/L
  LDH: 73.2 IU/L
  Na: 142.2 meq/L
  PL: 149.2 mg/dL
  RALB: 2.4 g/dL
  TBIL: 0.06 mg/dL
  TC: 79.8 mg/dL
  TG: 61.2 mg/dL
  TP: 5.3 g/dL
  gamma-GTP: 1.2 IU/L
[2]
  TERMINAL_BW: 199.4 g
  APTT: 16.7 s
  Bas: 0%
  Eos: 0.2%
  Fbg: 285 mg/dL
  Hb: 13.1 g/dL
  Ht: 40%
  Lym: 68.8%
  MCH: 21.3 pg
  MCHC: 32.6%
  MCV: 65.1 fL
  Mono: 2.8%
  Neu: 26.8%
  PT: 15.6 s
  Plat: 109.7 x10_4/uL
  RBC: 615.4 x10_4/ul
  Ret: 8.8%
  WBC: 77.4 x10_2/uL
  KIDNEY_L: 0.9 g
  KIDNEY_R: 0.9 g
  KIDNEY_TOTAL: 1.9 g
  LIVER: 8.5 g
  A/G: 0.9
  ALP: 1347.2 IU/L
  ALT: 40 IU/L
  AST: 73.6 IU/L
  BUN: 9.4 mg/dL
  CRE: 0.2 mg/dL
  Ca: 10.8 mg/dL
  Cl: 105 meq/L
  DBIL: 0.01 mg/dL
  GLC: 179.6 mg/dL
  IP: 10.1 mg/dL
  K: 4 meq/L
  LDH: 58.8 IU/L
  Na: 142.8 meq/L
  PL: 146.4 mg/dL
  RALB: 2.5 g/dL
  TBIL: 0.058 mg/dL
  TC: 78.8 mg/dL
  TG: 44 mg/dL
  TP: 5.3 g/dL
  gamma-GTP: 1.4 IU/L
[3]
  TERMINAL_BW: 195.6 g
  APTT: 18 s
  Bas: 0.4%
  Eos: 0.4%
  Fbg: 305 mg/dL
  Hb: 13.1 g/dL
  Ht: 40.5%
  Lym: 68.4%
  MCH: 20.9 pg
  MCHC: 32.5%
  MCV: 64.2 fL
  Mono: 1.6%
  Neu: 28.6%
  PT: 15.4 s
  Plat: 118.6 x10_4/uL
  RBC: 631 x10_4/ul
  Ret: 8.6%
  WBC: 77.2 x10_2/uL
  KIDNEY_L: 0.9 g
  KIDNEY_R: 0.9 g
  KIDNEY_TOTAL: 1.9 g
  LIVER: 8.2 g
  A/G: 0.9
  ALP: 1246.8 IU/L
  ALT: 42.6 IU/L
  AST: 81.6 IU/L
  BUN: 7.6 mg/dL
  CRE: 0.1 mg/dL
  Ca: 10.4 mg/dL
  Cl: 105.4 meq/L
  DBIL: 0.004 mg/dL
  GLC: 167.4 mg/dL
  IP: 9.9 mg/dL
  K: 3.5 meq/L
  LDH: 61.4 IU/L
  Na: 143.4 meq/L
  PL: 135.8 mg/dL
  RALB: 2.5 g/dL
  TBIL: 0.058 mg/dL
  TC: 74 mg/dL
  TG: 33.6 mg/dL
  TP: 5.4 g/dL
  gamma-GTP: 1.2 IU/L
[4]
  TERMINAL_BW: 211.3 g
  APTT: 17.6 s
  Bas: 0%
  Eos: 1%
  Fbg: 302 mg/dL
  Hb: 13.3 g/dL
  Ht: 40.5%
  Lym: 78%
  MCH: 21 pg
  MCHC: 32.8%
  MCV: 64 fL
  Mono: 2.8%
  Neu: 17%
  PT: 15.1 s
  Plat: 115.6 x10_4/uL
  RBC: 634 x10_4/ul
  Ret: 8.1%
  WBC: 80.3 x10_2/uL
  KIDNEY_L: 0.9 g
  KIDNEY_R: 0.9 g
  KIDNEY_TOTAL: 1.8 g
  LIVER: 10.2 g
  A/G: 0.8
  ALP: 1555.2 IU/L
  ALT: 49 IU/L
  AST: 69.8 IU/L
  BUN: 14.8 mg/dL
  CRE: 0.2 mg/dL
  Ca: 11 mg/dL
  Cl: 105.8 meq/L
  DBIL: 0.008 mg/dL
  GLC: 184.2 mg/dL
  IP: 9.1 mg/dL
  K: 4.2 meq/L
  LDH: 76.2 IU/L
  Na: 142 meq/L
  PL: 172.2 mg/dL
  RALB: 2.6 g/dL
  TBIL: 0.038 mg/dL
  TC: 93.2 mg/dL
  TG: 98.2 mg/dL
  TP: 5.6 g/dL
  gamma-GTP: 1 IU/L
[5]
  TERMINAL_BW: 199 g
  APTT: 17.8 s
  Bas: 0.4%
  Eos: 0.4%
  Fbg: 267.2 mg/dL
  Hb: 12.9 g/dL
  Ht: 39.8%
  Lym: 65.8%
  MCH: 21.4 pg
  MCHC: 32.4%
  MCV: 65.8 fL
  Mono: 4.2%
  Neu: 28%
  PT: 15.4 s
  Plat: 115.7 x10_4/uL
  RBC: 605.4 x10_4/ul
  Ret: 9.7%
  WBC: 95.8 x10_2/uL
  KIDNEY_L: 0.9 g
  KIDNEY_R: 0.9 g
  KIDNEY_TOTAL: 1.8 g
  LIVER: 9.3 g
  A/G: 0.9
  ALP: 1460 IU/L
  ALT: 47.8 IU/L
  AST: 77.2 IU/L
  BUN: 10.4 mg/dL
  CRE: 0.2 mg/dL
  Ca: 10.8 mg/dL
  Cl: 105.6 meq/L
  DBIL: 0.01 mg/dL
  GLC: 177.2 mg/dL
  IP: 9.8 mg/dL
  K: 4.1 meq/L
  LDH: 69.6 IU/L
  Na: 142 meq/L
  PL: 154.4 mg/dL
  RALB: 2.4 g/dL
  TBIL: 0.056 mg/dL
  TC: 83 mg/dL
  TG: 71.6 mg/dL
  TP: 5.2 g/dL
  gamma-GTP: 1.2 IU/L
[6]
  TERMINAL_BW: 195 g
  APTT: 16.4 s
  Bas: 0%
  Eos: 0.2%
  Fbg: 310.6 mg/dL
  Hb: 12.9 g/dL
  Ht: 39.3%
  Lym: 53.8%
  MCH: 21.1 pg
  MCHC: 32.8%
  MCV: 64.3 fL
  Mono: 2%
  Neu: 43.2%
  PT: 15.3 s
  Plat: 115.3 x10_4/uL
  RBC: 612.4 x10_4/ul
  Ret: 8.4%
  WBC: 82.5 x10_2/uL
  KIDNEY_L: 0.8 g
  KIDNEY_R: 0.9 g
  KIDNEY_TOTAL: 1.7 g
  LIVER: 8.3 g
  A/G: 0.9
  ALP: 1365.6 IU/L
  ALT: 36.4 IU/L
  AST: 69 IU/L
  BUN: 7.8 mg/dL
  CRE: 0.2 mg/dL
  Ca: 10.8 mg/dL
  Cl: 105.2 meq/L
  DBIL: 0.006 mg/dL
  GLC: 171.4 mg/dL
  IP: 10 mg/dL
  K: 3.7 meq/L
  LDH: 69.2 IU/L
  Na: 143.4 meq/L
  PL: 139.8 mg/dL
  RALB: 2.5 g/dL
  TBIL: 0.06 mg/dL
  TC: 80.4 mg/dL
  TG: 31.6 mg/dL
  TP: 5.3 g/dL
  gamma-GTP: 1.2 IU/L
[7]
  TERMINAL_BW: 195.3 g
  APTT: 16.7 s
  Bas: 0%
  Eos: 0.2%
  Fbg: 364.8 mg/dL
  Hb: 13 g/dL
  Ht: 40.1%
  Lym: 68.2%
  MCH: 21.4 pg
  MCHC: 32.4%
  MCV: 66.1 fL
  Mono: 2.2%
  Neu: 28.6%
  PT: 15.3 s
  Plat: 97.2 x10_4/uL
  RBC: 607 x10_4/ul
  Ret: 8.6%
  WBC: 61.4 x10_2/uL
  KIDNEY_L: 0.9 g
  KIDNEY_R: 0.9 g
  KIDNEY_TOTAL: 1.8 g
  LIVER: 8.4 g
  A/G: 0.9
  ALP: 1554.2 IU/L
  ALT: 38.8 IU/L
  AST: 71.4 IU/L
  BUN: 8.2 mg/dL
  CRE: 0.2 mg/dL
  Ca: 10.6 mg/dL
  Cl: 105.2 meq/L
  DBIL: 0.008 mg/dL
  GLC: 169.6 mg/dL
  IP: 10.5 mg/dL
  K: 3.7 meq/L
  LDH: 47.8 IU/L
  Na: 142.4 meq/L
  PL: 154.2 mg/dL
  RALB: 2.5 g/dL
  TBIL: 0.066 mg/dL
  TC: 84 mg/dL
  TG: 39.6 mg/dL
  TP: 5.4 g/dL
  gamma-GTP: 1 IU/L
[8]
  TERMINAL_BW: 211.6 g
  APTT: 17.8 s
  Bas: 0%
  Eos: 1%
  Fbg: 353.2 mg/dL
  Hb: 13.1 g/dL
  Ht: 40.4%
  Lym: 79.4%
  MCH: 21.5 pg
  MCHC: 32.4%
  MCV: 66.4 fL
  Mono: 3%
  Neu: 15.8%
  PT: 15.4 s
  Plat: 108.1 x10_4/uL
  RBC: 608.8 x10_4/ul
  Ret: 8.2%
  WBC: 71.1 x10_2/uL
  KIDNEY_L: 0.9 g
  KIDNEY_R: 0.9 g
  KIDNEY_TOTAL: 1.8 g
  LIVER: 10.2 g
  A/G: 0.8
  ALP: 1816.8 IU/L
  ALT: 43.2 IU/L
  AST: 70.8 IU/L
  BUN: 15.4 mg/dL
  CRE: 0.2 mg/dL
  Ca: 11.3 mg/dL
  Cl: 106 meq/L
  DBIL: 0.008 mg/dL
  GLC: 185.4 mg/dL
  IP: 8.7 mg/dL
  K: 4.5 meq/L
  LDH: 86.4 IU/L
  Na: 142.2 meq/L
  PL: 158.6 mg/dL
  RALB: 2.7 g/dL
  TBIL: 0.042 mg/dL
  TC: 81.8 mg/dL
  TG: 80.2 mg/dL
  TP: 5.8 g/dL
  gamma-GTP: 1 IU/L
